Reference: US12037644B2, “Use of FGFR mutant gene panels in identifying cancer patients that will be responsive to treatment with an FGFR inhibitor” (Janssen Pharmaceutica NV, priority 2014, dated 2024)

Columns and labels:
[1] = test system: RK3E-Transgene FGFR3; test: Drug response testing (Cell Titer-Glo proliferation), RK3E FGFR3; details: Rattus norvegicus, 72 h, read-out: Stimulated Proliferation (IC50)
Procedure: (§1) After 24 hours, cells were serum starved overnight, then re-fed with 0.5% FBS growth media. […] The Microtiter plates were then incubated for 72 hours and assayed for adenosine triphosphate (ATP; a marker of metabolically active cells) content using the Cell Titer-Glo® Luminescent Cell Viability assay (Promega Corp., Madison, WI, USA) following the manufacturer's instructions, with modifications. Briefly, cells were allowed to equilibrate to room temperature, at which time a 1:1 mixture of Cell Titer-Glo® reagent was added. Cells were then placed on an orbital shaker for 2 minutes and incubated for 10 minutes at room temperature to stabilize the luminescent signal. The luminescence was quantified and measurements were conducted using an Envision Multilabel plate reader (Perkin Elmer; Waltham, MA, USA).

[2] = test system: phosphorylation of FGFR, MAPK and S6 in FGFR fusion stably transfected RK3E cells; test: Downstream target expression (immunoblotting); assay type: cell-based, rat; details: 1 μM, in the presence of ligands, 1 hour; FIGS. 14A-14H
Procedure: For immunoblotting, whole cell lysates were collected in RIPA buffer (Thermo Scientific, Waltham, MA, USA) and sample protein concentration was assayed using BCA Protein Assay (Thermo Scientific). Equal amounts of protein (30 μg per lane) were loaded onto on 4-12% Bis-Tris gels (Invitrogen) before an SDS-page was performed. Proteins were transferred to nitrocellulose membranes and probed with antibodies against p-FGFR, total-FGFR2, p-MAPK, total-MAPK, p-S6, total S6, B-actin (Cell Signaling Technology, Danvers, MA, USA), and total-FGFR3 (Santa Cruz, Dallas, TX, USA). The membranes were blocked with Odyssey blocking buffer for 1 h at room temperature and incubated overnight at 4° C. in a primary antibody solution diluted in Odyssey blocking buffer (1:1000). After three washes in 0.1% Tween tris buffered saline (TBST), the membranes were probed with goat anti-mouse or donkey anti-rabbit IR-Dye […] or 800 cw labeled secondary antisera in Odyssey blocking buffer for 1 h at room temperature. Washes were repeated after secondary labeling and the membranes were imaged using a LiCor Odyssey scanner and the Odyssey 3.0 analytical software (LiCor, Lincoln, NE, USA).

[3] = test system: RK3E-Transgene TACC3-V1 (FGFR fusion stably transfected RK3E cells); test: Drug response testing (Cell Titer-Glo proliferation), RK3E FGFR3:TACC3 v1; details: Rattus norvegicus, 72 h, read-out: Stimulated Proliferation (IC50)
Procedure: (§2) RK3E (rat kidney epithelial cells) cells were purchased from ATCC (Manassas, VA, USA) and cultured in DMEM supplemented with FBS and antibiotics (Invitrogen, Grand Island, NY, USA).
as §1

[4] = test system: RK3E-Transgene KRAS; test: Drug response testing (Cell Titer-Glo proliferation), RK3E KRAS; details: Rattus norvegicus, 72 h, read-out: Stimulated Proliferation (IC50)
Procedure: as §1

[5] = test system: RK3E-Transgene BAIA2PL1 (FGFR fusion stably transfected RK3E cells); test: Drug response testing (Cell Titer-Glo proliferation), RK3E FGFR3:BAIAP2L1; details: Rattus norvegicus, 72 h, read-out: Stimulated Proliferation (IC50)
Procedure: as §1

[6] = test system: RK3E-Transgene Vector (empty vector control RK3E cells); test: Drug response testing (Cell Titer-Glo proliferation), RK3E empty vector control; details: Rattus norvegicus, 72 h, read-out: Stimulated Proliferation (IC50)
Procedure: as §1

[7] = test system: RK3E-Transgene TACC3-V3 (FGFR fusion stably transfected RK3E cells); test: Drug response testing (Cell Titer-Glo proliferation), RK3E FGFR3:TACC3 v3; details: Rattus norvegicus, 72 h, read-out: Stimulated Proliferation (IC50)
Procedure: as §2, §1

[8] = test system: FGFR fusion stably transfected RK3E cells; test: Drug response testing for FGFR-fusion overexpressing cell lines (overall statement); details: for sensitivity of cells harboring the FGFR fusions to the FGFR inhibitor in vitro: empty vector control did not show sensitivity
Procedure: as §1

[9] = test system: advanced solid tumors (patients with FGFR fusion genes / FGFR aberrations); test: Phase I First-In-Human study in patients with advanced solid tumor; assay type: in vivo; details: FIG. 11
[10] = test system: RK3E-Transgene AFF3 (FGFR fusion stably transfected RK3E cells); test: Drug response testing (Cell Titer-Glo proliferation), RK3E FGFR2:AFF3; details: Rattus norvegicus, 72 h, read-out: Stimulated Proliferation (IC50)
Procedure: as §2, §1

[11] = test system: RK3E-Transgene BICC1 (FGFR fusion stably transfected RK3E cells); test: Drug response testing (Cell Titer-Glo proliferation), RK3E FGFR2:BICC1; details: Rattus norvegicus, 72 h, read-out: Stimulated Proliferation (IC50)
Procedure: as §2, §1

[12] = test system: RK3E-Transgene FGFR2; test: Drug response testing (Cell Titer-Glo proliferation), RK3E FGFR2; details: Rattus norvegicus, 72 h, read-out: Stimulated Proliferation (IC50)
Procedure: as §2, §1

[13] = test system: RK3E-Transgene OFD1 (FGFR fusion stably transfected RK3E cells); test: Drug response testing (Cell Titer-Glo proliferation), RK3E FGFR2:OFD1; details: Rattus norvegicus, 72 h, read-out: Stimulated Proliferation (IC50)
Excerpt: (§3) RK3E (rat kidney epithelial cells) cells were purchased from ATCC (Manassas, VA, USA) and cultured in DMEM supplemented with FBS and antibiotics (Invitrogen, Grand Island, NY, USA). FGFR fusion gene constructs were designed and cloned into the pReceiver expression vector (Genecopoeia, Rockville, MD, USA), which contains an HA-tag. Clones were transfected into RK3E cells using the Amaxa Cell Line Nucleofector (Lonza, Basel, Switzerland) following the manufacturer's protocol. The stably transfected cells were selected in complete medium with 800 ug/ml of G418 (Invitrogen).
as §1

[14] = test system: RK3E-Transgene CASP7 (FGFR fusion stably transfected RK3E cells); test: Drug response testing (Cell Titer-Glo proliferation), RK3E FGFR2:CASP7; details: Rattus norvegicus, 72 h, read-out: Stimulated Proliferation (IC50)
Excerpt: as §3, §1

[15] = test system: RK3E-Transgene CCDC6 (FGFR fusion stably transfected RK3E cells); test: Drug response testing (Cell Titer-Glo proliferation), RK3E FGFR2:CCDC6; details: Rattus norvegicus, 72 h, read-out: Stimulated Proliferation (IC50)
Excerpt: as §3, §1

SMILES | IC50 [1] [nM] | phosphorylation of FGFR and downstream targets MAPK and S6 (immunoblot) [2] | IC50 [3] [nM] | IC50 [4] [nM] | IC50 [5] [nM] | IC50 [6] [nM] | IC50 [7] [nM] | sensitivity of cells harboring the FGFR fusions to the FGFR inhibitor in vitro [8] | clinical responses (RECIST) ([9]; 9 mg once a day (QD), 12 mg QD and 12 mg 7d on/off, patients with the FGFR fusion genes) | maximal percentage reduction of sum of the diameters of targeted lesions from baseline (RECIST) ([9]; dose level >= 6 mg, daily or intermittent (7 days on - 7 days off), patients whose tumors harbor FGFR gene translocations and mutations) | sensitivity when compared to AZD4547 and NVP-BGJ398 ([8]; nanomolar concentration range) | IC50 [10] [nM] | IC50 [11] [nM] | IC50 [12] [nM] | IC50 [13] [nM] | IC50 [14] [nM] | IC50 [15] [nM]
COc1cc(CCc2cc(NC(=O)c3ccc(N4C[C@@H](C)N[C@@H](C)C4)cc3)n[nH]2)cc(OC)c1 [AZD4547, N-[5-[2-(3,5-Dimethoxyphenyl)ethyl]-2H-pyrazol-3-yl]-4-(3,5-diemthylpiperazin-1-yl)benzamide] | 5690 | inhibited phosphorylation of FGFR and downstream targets i.e. MAPK and S6 | 16.5 | 1480 | 11.5 | 8010 | 8.66 | showed sensitivity |  |  |  |  |  |  |  |  | 
COc1cc(OC)cc(N(CCNC(C)C)c2ccc3ncc(-c4cnn(C)c4)nc3c2)c1 [JNJ-42756493, N-(3,5-dimethoxyphenyl)-N′-(1-methylethyl)-N-[3-(1-methyl-1H-pyrazol-4-yl)quinoxalin-6-yl]ethane-1,2-diamine] |  | inhibited phosphorylation of FGFR and downstream targets i.e. MAPK and S6 |  |  |  |  |  |  | Significant clinical responses | appear to be more sensitive | enhanced sensitivity |  |  |  |  |  | 
CCN1CCN(c2ccc(Nc3cc(N(C)C(=O)Nc4c(Cl)c(OC)cc(OC)c4Cl)ncn3)cc2)CC1 [NVP-BGJ398, 3-(2,6-Dichloro-3,5-dimethoxy-phenyl)-1-{6-[4-(4-ethyl-piperazin-1-yl)-phenylamino]-pyrimid-4-yl}-1-methyl-urea] | 6340 | inhibited phosphorylation of FGFR and downstream targets i.e. MAPK and S6 | 2.59 | 2140 | 5.16 | > 10000 | 4.09 | showed sensitivity |  |  |  | 2.27 | 18.2 | > 10000 | 16 | 242 | 10.7
